Test results: patent US12677830B2, “3-alkoxybenzamide derivative, and pest control agent” (Kumiai Chemical Industry Co., Ltd., priority 2020, dated 2026)

Key:
Assay type in all cases: in vivo
Tetranychus urticae = assay: Test for control effect against Tetranychus urticae (soybean seedling dip); settings: 312 h, 500 ppm active ingredient (wettable powder in water), soybean seedling inoculated with 35 female adults immersed, 25° C., 13 days after the treatment, read-out: controlling value
Experimental: [Test Example 5] Test for Control Effect Against Tetranychus urticae
The wettable powder prepared in accordance with Formulation Example 2 was diluted with water to a concentration of 500 ppm as an active ingredient. A soybean seedling previously inoculated with 35 female adults of Tetranychus urticae was immersed in the chemical solution, and air-dried. The treated soybean seedling was placed in a room at constant temperature of 25° C. The number of surviving female adults was examined at 13 days after the treatment, and the controlling value was determined by the calculation formula of Equation 2. The number of replicate is one in each test.
The compound numbers of the compounds showing a controlling value of 90 or more in this test are listed below.

Nilaparvata lugens = assay: Test for insecticidal activity against Nilaparvata lugens (rice sprout dip); settings: 144 h, 500 ppm active ingredient (wettable powder in water), rice sprouts immersed, ten second instar larvae, 25° C., 6 days after the treatment, read-out: mortality rate
Experimental: [Test Example 3] Test for Insecticidal Activity Against Nilaparvata lugens
The wettable powder prepared in accordance with Formulation Example 2 was diluted with water to a concentration of 500 ppm as an active ingredient. The rice sprouts were immersed in the chemical solution, and placed in a plastic cup. Ten second instar larvae of Nilaparvata lugens were released into the plastic cup, and the cup was capped. Thereafter, the cup was placed in a room at constant temperature of 25° C. The number of dead insects was examined at 6 days after the treatment, and the mortality rate was calculated by the calculation formula of Equation 1. The number of replicate is one in each test.
(§1) The compound numbers of the compounds showing a mortality rate of 90% or more in this test are listed below.

Plutella xylostella = assay: Test for insecticidal activity against Plutella xylostella (cabbage leaf dip); settings: foliar, 144 h, 500 ppm active ingredient (wettable powder in water), cabbage leaves immersed, ten second instar larvae, 25° C., 6 days after the treatment, read-out: mortality rate
Experimental: [Test Example 1] Test for Insecticidal Activity Against Plutella xylostella
(§2) The wettable powder prepared in accordance with Formulation Example 2 was diluted with water to a concentration of 500 ppm as an active ingredient. Cabbage leaves were immersed in the chemical solution, air-dried, and then placed in a plastic cup. Ten second instar larvae of Plutella xylostella were released into the cup, and the cup was capped. Thereafter, the cup was placed in a room at constant temperature of 25° C. The number of dead insects was examined at 6 days after the treatment, and the mortality rate was calculated by the calculation formula of Equation 1. The number of replicate is one in each test.
as §1

Aphis gossypii = assay: Test for control effect against Aphis gossypii (cucumber seedling dip); settings: 72 h, 500 ppm active ingredient (wettable powder in water), cucumber seedling inoculated with nymphs immersed, 25° C., 3 days after the treatment, read-out: mortality rate
Experimental: [Test Example 4] Test for Control Effect Against Aphis gossypii
The wettable powder prepared in accordance with Formulation Example 2 was diluted with water to a concentration of 500 ppm as an active ingredient. A cucumber seedling previously inoculated with Aphis gossypii nymphs was immersed in the chemical solution, and air-dried. The treated cucumber seedling was placed in a room at constant temperature of 25° C. The number of surviving insects was counted at 3 days after the treatment, and the mortality rate was calculated by the calculation formula of Equation 1. The number of replicate is one in each test.
as §1

Helicoverpa armigera = assay: Test for insecticidal activity against Helicoverpa armigera (cabbage leaf dip); settings: foliar, 144 h, 500 ppm active ingredient (wettable powder in water), cabbage leaves immersed, five hatching larvae, 25° C., 6 days after the treatment, read-out: mortality rate
Experimental: [Test Example 2] Test for Insecticidal Activity Against Helicoverpa armigera
as §2, with “Five hatching” for “Ten second instar”, “Helicoverpa armigera” for “Plutella xylostella”, “two” for “one”
as §1

In the case of `O=C(NCC(F)(F)F)c1cc(OCCCCCBr)c(F)cc1Cl` [Compound A-0030, 5-[(5-bromopentyl)oxy]-2-chloro-4-fluoro-N-(2,2,2-trifluoroethyl)benzamide], the pest or weed control at 500 ppm (Tetranychus urticae) is reported as ≥ 90%.

In the case of `CC(CCl)COc1cc(C(=O)NCC(F)(F)F)c(Cl)cc1F` (stereo not shown) [Compound A-0037, 2-chloro-5-(3-chloro-2-methylpropoxy)-4-fluoro-N-(2,2,2-trifluoroethyl)benzamide], the pest or weed control at 500 ppm (Tetranychus urticae) is reported as ≥ 90%.

For `N#CSCCCCCOc1cc(C(=O)NCC(F)(F)F)c(Cl)cc1F` [Compound A-0752, 2-chloro-4-fluoro-5-[(5-thiocyanatopentyl)oxy]-N-(2,2,2-trifluoroethyl)benzamide], the mortality at 500 ppm (Nilaparvata lugens) was ≥ 90%.

In the case of `CC(COc1cc(C(=O)NCC(F)(F)F)c(Cl)cc1F)CSC#N` (stereo not shown) [Compound A-0758, 2-chloro-4-fluoro-5-(2-methyl-3-thiocyanatopropoxy)-N-(2,2,2-trifluoroethyl)benzamide], the pest or weed control at 500 ppm (Tetranychus urticae) is reported as ≥ 90%.

In the case of `O=C(NCC(F)(F)F)c1cc(OCCCCCSC(F)(F)F)c(F)cc1Cl` [Compound A-4689, 2-chloro-4-fluoro-N-(2,2,2-trifluoroethyl)-5-({5-[(trifluoromethyl)thio]pentyl}oxy)benzamide], the pest or weed control at 500 ppm (Tetranychus urticae) is reported as ≥ 90%.

`Cc1cc(F)c(OCCCCCSC(F)(F)F)cc1C(=O)NCC(F)(F)F` [Compound A-4712, 4-fluoro-2-methyl-N-(2,2,2-trifluoroethyl)-5-({5-[(trifluoromethyl)thio]pentyl}oxy)benzamide] was tested, and the pest or weed control at 500 ppm (Tetranychus urticae) was ≥ 90%.

For `Fc1cc(Cl)c(C(=S)NCC(F)(F)F)cc1OCCCCCSC(F)(F)F` [Compound A-5172, 2-chloro-4-fluoro-N-(2,2,2-trifluoroethyl)-5-({5-[(trifluoromethyl)thio]pentyl}oxy)thiobenzamide], the pest or weed control at 500 ppm (Tetranychus urticae) was ≥ 90%.

For `N#CCN(CC(F)(F)F)C(=O)c1cc(OCCCCCSC(F)(F)F)c(F)cc1Cl` [Compound A-6692, 2-chloro-N-(cyanomethyl)-4-fluoro-N-(2,2,2-trifluoroethyl)-5-({5-[(trifluoromethyl)thio]pentyl}oxy)benzamide], the pest or weed control at 500 ppm (Tetranychus urticae) was ≥ 90% and the mortality at 500 ppm (Plutella xylostella) was ≥ 90%.

With `CC(=O)N(CC(F)(F)F)C(=O)c1cc(OCCCCCSC(F)(F)F)c(F)cc1Cl` [Compound A-6814, N-acetyl-2-chloro-4-fluoro-N-(2,2,2-trifluoroethyl)-5-({5-[(trifluoromethyl)thio]pentyl}oxy)benzamide] the pest or weed control at 500 ppm (Tetranychus urticae) was ≥ 90% and the mortality at 500 ppm (Nilaparvata lugens) was ≥ 90%.

In the case of `CC(COc1cc(C(=O)NCC(F)(F)F)c(Cl)cc1F)CSC(F)(F)F` (stereo not shown) [Compound B-0009, 2-chloro-4-fluoro-5-{2-methyl-3-[(trifluoromethyl)thio]propoxy}-N-(2,2,2-trifluoroethyl)benzamide], the pest or weed control at 500 ppm (Tetranychus urticae) is reported as ≥ 90%, the mortality at 500 ppm (Nilaparvata lugens) is reported as ≥ 90% and the mortality at 500 ppm (Plutella xylostella) is reported as ≥ 90%. The mortality at 500 ppm (Aphis gossypii) was ≥ 90% and the mortality at 500 ppm (Helicoverpa armigera) was ≥ 90%.

For `CC(COc1cc(C(=O)NCC(F)(F)F)c(Cl)cc1F)NS(=O)(=O)C(F)(F)F` (stereo not shown) [Compound C-0004, 2-chloro-4-fluoro-N-(2,2,2-trifluoroethyl)-5-{2-[(trifluoromethyl)sulfonamido]propoxy}benzamide], the pest or weed control at 500 ppm (Tetranychus urticae) was ≥ 90%, the mortality at 500 ppm (Nilaparvata lugens) was ≥ 90% and the mortality at 500 ppm (Plutella xylostella) was ≥ 90%. The mortality at 500 ppm (Aphis gossypii) was ≥ 90% and the mortality at 500 ppm (Helicoverpa armigera) was ≥ 90%.

For `C[C@H](COc1cc(C(=O)NCC(F)(F)F)c(Cl)cc1F)NS(=O)(=O)C(F)(F)F` [Compound C-0005, (R)-2-chloro-4-fluoro-N-(2,2,2-trifluoroethyl)-5-{2-[(trifluoromethyl)sulfonamido]propoxy}benzamide], the pest or weed control at 500 ppm (Tetranychus urticae) was ≥ 90%.

`C[C@@H](COc1cc(C(=O)NCC(F)(F)F)c(Cl)cc1F)NS(=O)(=O)C(F)(F)F` [Compound C-0006, (S)-2-chloro-4-fluoro-N-(2,2,2-trifluoroethyl)-5-{2-[(trifluoromethyl)sulfonamido]propoxy}benzamide] was tested, and the pest or weed control at 500 ppm (Tetranychus urticae) was ≥ 90%, the mortality at 500 ppm (Nilaparvata lugens) was ≥ 90% and the mortality at 500 ppm (Plutella xylostella) was ≥ 90%. The mortality at 500 ppm (Aphis gossypii) was ≥ 90% and the mortality at 500 ppm (Helicoverpa armigera) was ≥ 90%.

For `C[C@@H](COc1cc(C(=O)NC2CC2)c(Cl)cc1F)NS(=O)(=O)C(F)(F)F` [Compound C-0130, (S)-2-chloro-N-cyclopropyl-4-fluoro-5-{2-[(trifluoromethyl)sulfonamido]propoxy}benzamide], the pest or weed control at 500 ppm (Tetranychus urticae) was ≥ 90%, the mortality at 500 ppm (Nilaparvata lugens) was ≥ 90% and the mortality at 500 ppm (Plutella xylostella) was ≥ 90%. For the same compound, the mortality at 500 ppm (Aphis gossypii) was ≥ 90% and the mortality at 500 ppm (Helicoverpa armigera) was ≥ 90%.

With `C[C@@H](COc1cc(C(=O)NC2(C#N)CC2)c(Cl)cc1F)NS(=O)(=O)C(F)(F)F` [Compound C-2980, (S)-2-chloro-N-(1-cyanocyclopropyl)-4-fluoro-5-{2-[(trifluoromethyl)sulfonamido]propoxy}benzamide] the pest or weed control at 500 ppm (Tetranychus urticae) was ≥ 90%, the mortality at 500 ppm (Nilaparvata lugens) was ≥ 90% and the mortality at 500 ppm (Plutella xylostella) was ≥ 90%. The mortality at 500 ppm (Aphis gossypii) was ≥ 90%.

For `CC(=O)N(CC(F)(F)F)C(=O)c1cc(OCC(C)NS(=O)(=O)C(F)(F)F)c(F)cc1Cl` (stereo not shown) [Compound C-4214, N-acetyl-2-chloro-4-fluoro-N-(2,2,2-trifluoroethyl)-5-{2-[(trifluoromethyl)sulfonamido]propoxy}benzamide], the pest or weed control at 500 ppm (Tetranychus urticae) was ≥ 90%, the mortality at 500 ppm (Nilaparvata lugens) was ≥ 90% and the mortality at 500 ppm (Plutella xylostella) was ≥ 90%. For the same compound, the mortality at 500 ppm (Aphis gossypii) was ≥ 90% and the mortality at 500 ppm (Helicoverpa armigera) was ≥ 90%.

`CC(COc1cc(C(=O)NCC(F)(F)F)c(Cl)cc1F)N(C(=O)OC(C)(C)C)S(=O)(=O)C(F)(F)F` (stereo not shown) [Compound C-9422, tert-butyl(1-{4-chloro-2-fluoro-5-[(2,2,2-trifluoroethyl)carbamoyl]phenoxy}propan-2-yl)[(trifluoromethyl)sulfonyl]carbamate] was tested, and the pest or weed control at 500 ppm (Tetranychus urticae) was ≥ 90%, the mortality at 500 ppm (Nilaparvata lugens) was ≥ 90% and the mortality at 500 ppm (Plutella xylostella) was ≥ 90%. For the same compound, the mortality at 500 ppm (Aphis gossypii) was ≥ 90% and the mortality at 500 ppm (Helicoverpa armigera) was ≥ 90%.
